In article PMC3985517, “Abscisic acid dynamics in roots detected with genetically encoded FRET sensors” (eLife, 2014):
Read-outs that look alike come from different tables or passages of the source.

Columns and labels:
[1] = tested on: Arabidopsis seeds; assay: Seed germination on ABA plates; assay type: in vivo; details: all genotypes; plates with 20 µM (±)-ABA
Description: (§1) For ABA treatments, 20 mM (±)-ABA was prepared freshly as a stock solution in 50 mM NaOH. Mock treatment plates were made using NaOH to keep pH consistent. Root tips were marked at the time of transfer and images were acquired after 4 days growth on vertical treatment plates. Root growth after transfer were measured using FIJI (http://fiji.sc/). Each experiment included ∼15 roots per genotype and was repeated three independent times with similar results. ABA sensitivity of seed germination rate of Arabidopsis seeds was assayed after sowing on ½ × MS agar medium plates supplemented with 0, 2 or 20 µM (±)-ABA. […] Plates were stratified for 2 days at +4°C after which they were transferred to a growth chamber with standard long day conditions (16 hr high light, 22°C, 70% RH). Seeds were considered germinated at radicle emergence and germination rate was assayed 9 days post sowing in three independent experiments of 100–200 seeds per genotype. The abi1-2, hab1-1, pp2ca-1 triple mutant line was a gift from Pedro Rodriguez ([Rubio et al., 2009]).

[2] = tested on: Arabidopsis seedlings; assay: Primary root growth of ABACUS1 plant lines on ABA plates; assay type: in vivo
Description: as §1

[3] = parameters: method as in Kaiser and Hartung, 1981; details: ref Kaiser and Hartung, 1981; cited from earlier work
[4] = tested on: Arabidopsis roots; assay: ABACUS1 responses in roots perfused with ABA in the RootChip16; assay type: in vivo
Description: The RootChip16 device was used as described in detail previously for the RootChip ([Grossmann et al., 2011], [2012]). Briefly, the device was sterilized by UV light exposure, immersed in liquid growth media (¼ × MS salts, 1.28 mM MES pH 5.7 supplemented with B vitamins at final concentrations of niacin 2.3 µM, thiamine 1.5 µM, pyridoxin 1.2 µM and myo-inositol 0.3 µM), and air in the root observation chambers was removed by applying suction at the solution outlets using a microliter pipette. 5-day old Arabidopsis seedlings, germinated on 5 mm long cut 10 µl pipette tips filled with solidified growth medium (½ × MS salts, 1% Agar, 2.56 mM MES pH 5.7 supplemented with B vitamins at final concentrations of niacin 4.6 µM, thiamine 3.0 µM, pyridoxin 2.4 µM and myo-inositol 0.6 µM, were transferred onto the chip by plugging the tips into the root inlets. The chip was incubated for 24 hr under standard long-day growth conditions (16 hr high light, 22°C, 70% RH) to allow roots to grow into the observation chambers. Before imaging, the RootChip16 was inserted from below into the central aperture of the carrier and fixed with tape. Pressure lines for control over micromechanical valves and flow lines for perfusion of solutions were connected. To actuate the push-up valves on the chip, a closing pressure of 15 p.s.i (1.03 bar) was applied to the water filled control lines. […]

[5] = tested on: Arabidopsis roots; parameters: method as in Grossmann et al., 2011; details: ref Grossmann et al., 2011; cited from earlier work
[6] = tested on: ABACUS1-2µ; assay type: biochemical, Arabidopsis; details: Figure 3B-E

With `CC1=CC(=O)CC(C)(C)C1(O)/C=C/C(C)=C\C(=O)O` (racemic) [(±)-ABA] the germination [1] was 0%, the “root growth of ABACUS1-2µ sensor lines” value ([2]; 20 µM exogenous (±)-ABA) was “almost completely inhibited” and the “root growth of ABACUS1-80µ plants” value ([2]; 100 µM exogenous (±)-ABA) was “strongly inhibited”.

For `CC1=CC(=O)CC(C)(C)[C@@]1(O)/C=C/C(C)=C\C(=O)O` [ABA, abscisic acid], the pKa [3] is listed as 4.7, the “accumulation rate of a non-pre-exposed root relative to a root pre-exposed to ABA” value ([4]; first ABA pulse, 5 µM (±)-ABA, ABACUS1-2µ roots) is listed as “nearly twice” and the “time to saturation of sensor responses” value ([4]; typical experiment, roots) is listed as ~15 min.

In the case of `OC[C@H]1OC(O)[C@H](O)[C@@H](O)[C@@H]1O` (stereo partly drawn) [Glucose, glucose], the “time to saturation of sensor responses” value [5] is listed as “less than 1 min”.

With `O=S(=O)(NCc1ccccn1)c1ccc(Br)c2ccccc12` [Pyrabactin, pyrabactin] the “increase in energy transfer of ABACUS1 (positive ratio change), in words” value [6] was “induced”.

For `O=c1[nH]c(=O)c2nc[nH]c2[nH]1` [Xanthine, xanthine], the “increase in energy transfer of ABACUS1 (positive ratio change), in words” value [6] was “did not occur”.
